Where two headings read alike, the source gives them in different places.
Assay type: in vitro ADME
Conditions: for Nail (summary) / Receptor (summary) / Total nail (summary): 10 mM
Procedure: The donor solution in experiment 2 consisted of: 0.36% (10 mM) amorolfine HCl in an aqueous solution containing 50 mM NaCl and 0.4% Tween 80. The experiment was performed at pH 3.9 without further adjustment.
The donor solution in experiment 3 consisted of: 0.36% (10 mM) amorolfine HCl in an 40:60 (w:w) Tris buffer:ethanol. The Tris buffer contained 50 mM Tris and 50 mM NaCl at pH 7.4. The pH of the buffer:ethanol solution was ˜7.5. After addition of the drug the pH was ˜5.5.
The donor solution in experiments 4 and 5 consisted of: 1% (28 mM) amorolfine HCl in an 40:60 (w:w) Tris buffer:ethanol. The Tris buffer contained 50 mM Tris and 50 mM NaCl at pH 7.4. The pH of the buffer:ethanol solution was ˜7.5. After addition of the drug the pH was ˜4.7.
Receptor solution: pH 7.4 PBS containing 0.25% Tween 80 (same as Expt. 2).
Diffusion cells: 15 mm diameter Franz diffusion cells were used. The “nail assemblage” was placed in […] the donor and receptor chambers.
Nail device: A nail was glued […] two silicone rings with an internal orifice of 5 mm diameter.
The thickness of the nails was measured with a micrometer. Before hydration nail thickness in the periphery was measured in three places. The central part was not measured at this time to avoid any risk of breaking the nail. The nails were soaked overnight in 50 mM NaCl solution. Because of the increased flexibility of the nail after soaking, it was then possible to measure the thickness in the central part, upper part and lateral corner of the nail (Table 1):
Testing for leaks and iontophoretic circuit: Before starting the iontophoretic experiment, the absence of leaks was tested for each cell. The donor and receptor chambers were filled with donor (without drug) and receptor buffer, respectively, and a 0.1 mA current was passed. In the presence of leaks, the resistance of the circuit is low and the voltage needed to drive the current is very small (˜1V).
The voltages observed at the start of current passage decreased rapidly to settle at (˜30V after approximately 20 minutes.
Once the stability of the circuit with the three cells was assured, the donor compartment was filled with the drug solution and the current re-started.
The intensity of current was 0.1 mA, equivalent to 0.51 mA/cm^2 (area exposed=0.196 cm^2).
One sample was taken after 18 hours of iontophoresis for experiment 2 and 20 hours for experiments 3 and 4. The receptor was then refilled and a passive post-iontophoretic period of 4 hours elapsed before a second sample was obtained.
After recovery of the donor solution, the anode chamber was rinsed twice with ethanol to clean residual solution from the surface of the nail. Then, the nail was cut out of the silicone ring, weighed, dissolved in Soluene®, and assayed for radioactivity.
Experiment 5 is a passive control.

## CCC(C)(C)c1ccc(CC(C)CN2C[C@@H](C)O[C@@H](C)C2)cc1 (stereo partly drawn) [Amorolfine, cis-4-[3-[4-(1,1-dimethylpropyl)phenyl]-2-methylpropyl]-2,6-dimethylmorpholine]
  effect of iontophoresis on drug delivery into and through the nail: enhances drug delivery into and trough the nail
  flux of amorolfine, comparison of experiments: higher flux
18 h, pH 3.9
  Nail (summary): 5.1 ± 4.3 nmol/mg
  Receptor (summary): 2.4 ± 0.5 nmol
  Total nail (summary): 38 ± 13 nmol
20 h
  Nail (summary): 3.2 ± 0.6 nmol/mg
  Receptor (summary): 1.7 ± 0.7 nmol
  Total nail (summary): 28 ± 3.6 nmol
